Test system: NMNAT2
Test: NMNAT2-Hibit nano-luciferase activity in transfected U87MG cells, 5 μM, 48 hours
Assay type: cell-based
Details: NMNAT2-Hibit luciferase plasmid, 48 hours (Table D)
Experimental: Selected compounds were tested in vitro. Briefly, U87MG cells were transfected with NMNAT2-Hibit luciferase plasmid. Cells were treated with test compound at 5 μM for 48 hours. Cells were then collected and assayed for nano-luciferase activity.

Compound	D: compound efficacy for NMNAT2 activation; increase in NMNAT2 luciferase activity
Cc1ccc(NC(=O)Cn2cc(C(=O)c3ccccc3)c3ccccc32)cc1 [BC181209]	+ (“+” <20% increase in NMNAT2 luciferase activity.)
Cc1cccc(NC(=O)Cn2cc(C(=O)c3ccccc3)c3ccccc32)c1C [BC181210]	++ (“++” >20% and <100% increase in NMNAT2 luciferase activity.)
Cc1ccc(C)c(NC(=O)Cn2cc(C(=O)c3ccccc3)c3ccccc32)c1 [BC181211]	++ (“++” >20% and <100% increase in NMNAT2 luciferase activity.)
Cc1ccc(NC(=O)Cn2cc(C(=O)c3ccccc3)c3ccccc32)cc1C [BC181212]	+ (“+” <20% increase in NMNAT2 luciferase activity.)
COc1ccc(NC(=O)Cn2cc(C(=O)c3ccccc3)c3ccccc32)cc1 [BC181213]	+ (“+” <20% increase in NMNAT2 luciferase activity.)
COCCNC(=O)Cn1cc(C(=O)c2ccccc2)c2ccccc21 [BC181214]	+ (“+” <20% increase in NMNAT2 luciferase activity.)
O=C(Cn1cc(C(=O)c2ccccc2)c2ccccc21)Nc1ccc(Br)cc1 [BC181215]	+ (“+” <20% increase in NMNAT2 luciferase activity.)
O=C(Cn1cc(C(=O)c2ccccc2)c2ccccc21)NCc1ccc2c(c1)OCO2 [BC181216]	+ (“+” <20% increase in NMNAT2 luciferase activity.)
CCN(CC)C(=O)Cn1cc(C(=O)c2ccccc2)c2ccccc21 [BC181217]	+ (“+” <20% increase in NMNAT2 luciferase activity.)
CC1CCCCN1C(=O)Cn1cc(C(=O)c2ccccc2)c2ccccc21 (stereo not shown) [BC181218]	+ (“+” <20% increase in NMNAT2 luciferase activity.)
CC1CCCC(C)N1C(=O)Cn1cc(C(=O)c2ccccc2)c2ccccc21 (stereo not shown) [BC181219]	++ (“++” >20% and <100% increase in NMNAT2 luciferase activity.)
O=C(Cn1cc(C(=O)C2CCCCC2)c2ccccc21)NCc1ccco1 [BC181220]	+++ (“+++” >100% increase in NMNAT2 luciferase activity.)
O=C(Cn1cc(C(=O)C2CCCCC2)c2ccccc21)NCc1ccccc1 [BC181221]	+ (“+” <20% increase in NMNAT2 luciferase activity.)
O=C(Cn1cc(C(=O)C2CCCCC2)c2ccccc21)NCCc1ccccc1 [BC181222]	++ (“++” >20% and <100% increase in NMNAT2 luciferase activity.)
O=C(Cn1cc(C(=O)c2ccco2)c2ccccc21)NCc1ccccc1 [BC181223]	+ (“+” <20% increase in NMNAT2 luciferase activity.)
CC(NC(=O)Cn1cc(C(=O)c2ccccc2)c2ccccc21)c1ccccc1 (stereo not shown) [BC181224]	+ (“+” <20% increase in NMNAT2 luciferase activity.)
CC(NC(=O)Cn1cc(C(=O)C2CCCCC2)c2ccccc21)c1ccccc1 (stereo not shown) [BC181225]	+ (“+” <20% increase in NMNAT2 luciferase activity.)
CCC(=O)c1cn(CC(=O)NCc2cccnc2)c2ccccc12 [BC181226]	+ (“+” <20% increase in NMNAT2 luciferase activity.)
CCN(CC)C(=O)C(=O)c1cn(CC(=O)NCCc2ccccc2)c2ccccc12 [BC181227]	+ (“+” <20% increase in NMNAT2 luciferase activity.)
CCc1cccc2c(C(=O)C(=O)NCCc3ccccc3)cn(Cc3ccccc3)c12 [BC181228]	+ (“+” <20% increase in NMNAT2 luciferase activity.)
CCn1cc(CCCC(=O)NCc2ccc(F)cc2)c2ccccc21 [BC181229]	++ (“++” >20% and <100% increase in NMNAT2 luciferase activity.)
Cc1ccc(Cn2cc(CCCC(=O)NCc3ccco3)c3ccccc32)cc1 [BC181230]	+++ (“+++” >100% increase in NMNAT2 luciferase activity.)
Cc1ccc(Cn2cc(CCCC(=O)NCc3ccco3)c3ccccc32)cc1 [BC181231]	++ (“++” >20% and <100% increase in NMNAT2 luciferase activity.)
Cc1ccc(Cn2cc(CCCC(=O)NC(C)C)c3ccccc32)cc1 [BC181232]	+ (“+” <20% increase in NMNAT2 luciferase activity.)
CCCNC(=O)CCCc1cn(Cc2ccc(C)cc2)c2ccccc12 [BC181233]	+ (“+” <20% increase in NMNAT2 luciferase activity.)

Compound	D: compound efficacy for NMNAT2 activation; increase in NMNAT2 luciferase activity
COCCNC(=O)CCCc1cn(Cc2ccc(C)cc2)c2ccccc12 [BC181234]	++ (“++” >20% and <100% increase in NMNAT2 luciferase activity.)
Cc1ccccc1Cn1cc(CCCC(=O)NCc2ccco2)c2ccccc21 [BC181235]	++ (“++” >20% and <100% increase in NMNAT2 luciferase activity.)
Cc1ccccc1Cn1cc(CCC(=O)NCc2ccco2)c2ccccc21 [BC181237]	++ (“++” >20% and <100% increase in NMNAT2 luciferase activity.)
Cc1ccccc1Cn1cc(CCC(=O)NCC2=CC=CC2)c2ccccc21 [BC181238]	++ (“++” >20% and <100% increase in NMNAT2 luciferase activity.)
Cc1ccc(Cn2cc(CCC(=O)NCC3=CC=CC3)c3ccccc32)cc1 [BC181239]	+ (“+” <20% increase in NMNAT2 luciferase activity.)
Cc1ccc(Cn2cc(CCC(=O)NCc3ccco3)c3ccccc32)cc1 [BC181240]	+ (“+” <20% increase in NMNAT2 luciferase activity.)
Cc1ccccc1Cn1cc(CCC(=O)NCc2ccco2)c2ccccc21 [BC181241]	+ (“+” <20% increase in NMNAT2 luciferase activity.)
Cc1ccccc1Cn1cc(CCC(=O)NCC2=CC=CC2)c2ccccc21 [BC181242]	+ (“+” <20% increase in NMNAT2 luciferase activity.)
Cc1ccccc1Cn1cc(CCC(=O)NCc2ccco2)c2ccccc21 [BC181243]	++ (“++” >20% and <100% increase in NMNAT2 luciferase activity.)
Cc1ccccc1Cn1cc(CCC(=O)NCC2=CC=CC2)c2ccccc21 [BC181244]	++ (“++” >20% and <100% increase in NMNAT2 luciferase activity.)
Cc1ccc(C)c(Cn2cc(CCC(=O)NCc3ccco3)c3ccccc32)c1 [BC181245]	++ (“++” >20% and <100% increase in NMNAT2 luciferase activity.)
Cc1ccc(C)c(Cn2cc(CCC(=O)NCC3=CC=CC3)c3ccccc32)c1 [BC181246]	++ (“++” >20% and <100% increase in NMNAT2 luciferase activity.)
Cc1c(C)n(Cc2ccccc2)c2ccc(C(=O)NCc3ccco3)cc12 [BC181247]	+++ (“+++” >100% increase in NMNAT2 luciferase activity.)
Cc1ccc(CNC(=O)c2ccc3c(c2)c(C)c(C)n3Cc2ccccc2)o1 [BC181248]	++ (“++” >20% and <100% increase in NMNAT2 luciferase activity.)
Cc1ccc2c(c1)c(=O)c(C(=O)c1ccncc1)cn2CC(=O)NCc1ccccc1 [BC181249]	+ (“+” <20% increase in NMNAT2 luciferase activity.)
Cc1ccc(CNC(=O)Cn2cc(C(=O)c3ccncc3)c(=O)c3cc(C)ccc32)cc1 [BC181250]	+ (“+” <20% increase in NMNAT2 luciferase activity.)
Cc1ccc2c(c1)c(=O)c(C(=O)c1ccncc1)cn2CC(=O)NCc1ccc(Cl)cc1 [BC181251]	++ (“++” >20% and <100% increase in NMNAT2 luciferase activity.)
Cc1ccc2c(c1)c(=O)c(C(=O)c1ccncc1)cn2CC(=O)NCc1ccc(F)cc1 [BC181252]	++ (“++” >20% and <100% increase in NMNAT2 luciferase activity.)
O=C(Cn1cc(C(=O)c2ccncc2)c(=O)c2cc(F)ccc21)NCc1ccccc1 [BC181253]	++ (“++” >20% and <100% increase in NMNAT2 luciferase activity.)
Cc1cc2c(=O)c(C(=O)c3ccncc3)cn(CC(=O)NCc3ccccc3)c2cc1C [BC181254]	++ (“++” >20% and <100% increase in NMNAT2 luciferase activity.)
Cc1ccc(CNC(=O)Cn2cc(C(=O)c3ccncc3)c(=O)c3cc(C)c(C)cc32)cc1 [BC181255]	+ (“+” <20% increase in NMNAT2 luciferase activity.)
O=C(Cn1cc(C(=O)c2ccncc2)c(=O)c2cc(Br)ccc21)NCc1ccccc1 [BC181256]	+ (“+” <20% increase in NMNAT2 luciferase activity.)
O=C(Cn1cc(C(=O)c2ccccc2)c2ccccc21)NCc1ccc2c(c1)OCCCO2 [BC181257]	+ (“+” <20% increase in NMNAT2 luciferase activity.)
Cc1ccc(Cn2cc(C(CC(=O)NCc3ccco3)c3ccc(C)cc3)c3ccccc32)cc1 (stereo not shown) [BC181258]	++ (“++” >20% and <100% increase in NMNAT2 luciferase activity.)

Source: patent US20220169632A1, “METHODS AND MATERIALS FOR INCREASING OR MAINTAINING NICOTINAMIDE MONONUCLEOTIDE ADENYLYL TRANSFERASE-2 (NMNAT2) POLYPEPTIDE LEVELS” (University of Pittsburgh - Of the Commonwealth System of …, priority 2019, published 2022)
